Read-outs that look alike come from different tables or passages of the source.
Test system: RS4; 11 with G101V mutation
Assay: In vitro anti-proliferation assay (ATPlite luminescence) in BCL-2-dependent ALL cell line RS4;11 with G101V mutation
Type: cell-based
Details: read-out: RS411-G101V IC50
Summary of the method: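 IC50 came from luminescent ATP quantification (ATPlite) following cell lysis. Compound dose ranges were applied for roughly 72 h to about 1×10^4 G101V-mutant RS4;11 cells per well, in 10% FBS medium.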

[1] = cellular anti-proliferative IC50, about 72 hours, medium with 10% FBS, ATPlite

Row | Structure (SMILES) | IC50 [1] [nM] | IC50 (Homo sapiens, RS4-11, 72 h) [nM]
1 | Cc1ccccc1[C@@H]1CN(Cc2cnc(N3CCOCC3)c3c2C(C)(C)CCO3)CCN1C1CC2(CCN(c3ccc(C(=O)NS(=O)(=O)c4cc5c(c([N+](=O)[O-])c4)N[C@H](C4CCOCC4)CO5)c(N4c5cc6cc[nH]c6nc5O[C@H]5COCC[C@@H]54)c3)CC2)C1 [Example 192, 4-{2-[(2R)-4-{[4,4-dimethyl-8-(morpholin-4-yl)-2H,3H-pyrano[2,3-c]pyridin-5-yl]methyl}-2-(2-methylphenyl)piperazin-1-yl]-7-azaspiro[3.5]nonan-7-yl}-2-[(3R,8S)-2,5-dioxa-9,15,17-triazatetracyclo[8.7.0.0^{3,8}.0^{12,16}]heptadeca-1(10),11,13,16-tetraen-9-yl]-N-[(3R)-5-nitro-3-(oxan-4-yl)-3,4-dihydro-2H-1,4-benzoxazin-7-ylsulfonyl]benzamide] | 2.41 | –
2 | COc1cc([C@H](C)N2CCN(C3CC4(CCN(c5ccc(C(=O)NS(=O)(=O)c6cc7c(c([N+](=O)[O-])c6)N[C@H](C6CCOCC6)CO7)c(N6c7cc8cc[nH]c8nc7O[C@H]7COCC[C@@H]76)c5)CC4)C3)[C@H](c3ccccc3C)C2)cnc1N1CCOC[C@@H]1C [Example 193, 4-(2-((R)-4-((S)-1-(5-methoxy-6-((S)-3-methylmorpholino)pyridin-3-yl)ethyl)-2-(o-tolyl)piperazin-1-yl)-7-azaspiro[3.5]nonan-7-yl)-N-(((R)-5-nitro-3-(tetrahydro-2H-pyran-4-yl)-3,4-dihydro-2H-benzo[b][1,4]oxazin-7-yl)sulfonyl)-2-((5aS,9aR)-6,7,9,9a-tetrahydro-1H-pyrano[3,4-b]pyrrolo[3′,2′:5,6]pyrido[3,2-e][1,4]oxazin-5(5aH)-yl)benzamide] | – | 73.3
3 | COc1cc([C@@H](C)N2CCN(C3CC4(CCN(c5ccc(C(=O)NS(=O)(=O)c6cc7c(c([N+](=O)[O-])c6)N[C@H](C6CCOCC6)CO7)c(N6c7cc8cc[nH]c8nc7O[C@H]7COCC[C@@H]76)c5)CC4)C3)[C@H](c3ccccc3C)C2)cnc1N1CCOC[C@@H]1C [Example 194, 4-(2-((R)-4-((R)-1-(5-methoxy-6-((S)-3-methylmorpholino)pyridin-3-yl)ethyl)-2-(o-tolyl)piperazin-1-yl)-7-azaspiro[3.5]nonan-7-yl)-N-(((R)-5-nitro-3-(tetrahydro-2H-pyran-4-yl)-3,4-dihydro-2H-benzo[b][1,4]oxazin-7-yl)sulfonyl)-2-((5aS,9aR)-6,7,9,9a-tetrahydro-1H-pyrano[3,4-b]pyrrolo[3′,2′:5,6]pyrido[3,2-e][1,4]oxazin-5(5aH)-yl)benzamide] | – | 2.53
4 | Cc1ccccc1[C@@H]1CN([C@@H]2CCOc3c2ccc(F)c3F)CCN1C1CC2(CCN(c3ccc(C(=O)NS(=O)(=O)c4cc5c(c([N+](=O)[O-])c4)N[C@H](C4CCOCC4)CO5)c(N4c5cc6cc[nH]c6nc5O[C@H]5COCC[C@@H]54)c3)CC2)C1 [Example 195, 4-{2-[(2R)-4-[(4R)-7,8-difluoro-3,4-dihydro-2H-1-benzopyran-4-yl]-2-(2-methylphenyl)piperazin-1-yl]-7-azaspiro[3.5]nonan-7-yl}-2-[(3R,8S)-2,5-dioxa-9,15,17-triazatetracyclo[8.7.0.0^{3,8}.0^{12,16}]heptadeca-1(10),11,13,16-tetraen-9-yl]-N-[(3R)-5-nitro-3-(oxan-4-yl)-3,4-dihydro-2H-1,4-benzoxazin-7-ylsulfonyl]benzamide] | 94.5 | –
5 | Cc1ccccc1[C@@H]1CN([C@H]2CCOc3c2ccc(F)c3F)CCN1C1CC2(CCN(c3ccc(C(=O)NS(=O)(=O)c4cc5c(c([N+](=O)[O-])c4)N[C@H](C4CCOCC4)CO5)c(N4c5cc6cc[nH]c6nc5O[C@H]5COCC[C@@H]54)c3)CC2)C1 [Example 196, 4-{2-[(2R)-4-[(4S)-7,8-difluoro-3,4-dihydro-2H-1-benzopyran-4-yl]-2-(2-methylphenyl)piperazin-1-yl]-7-azaspiro[3.5]nonan-7-yl}-2-[(3R,8S)-2,5-dioxa-9,15,17-triazatetracyclo[8.7.0.0^{3,8}.0^{12,16}]heptadeca-1(10),11,13,16-tetraen-9-yl]-N-[(3R)-5-nitro-3-(oxan-4-yl)-3,4-dihydro-2H-1,4-benzoxazin-7-ylsulfonyl]benzamide] | 92.3 | –
6 | Cc1ccccc1[C@@H]1CN([C@H]2CCOc3c(F)cc(F)cc32)CCN1C1CC2(CCN(c3ccc(C(=O)NS(=O)(=O)c4cc5c(c([N+](=O)[O-])c4)N[C@H](C4CCOCC4)CO5)c(N4c5cc6cc[nH]c6nc5O[C@H]5COCC[C@@H]54)c3)CC2)C1 [Example 197, 4-(2-((R)-4-((S)-6,8-difluorochroman-4-yl)-2-(o-tolyl)piperazin-1-yl)-7-azaspiro[3.5]nonan-7-yl)-N-(((R)-5-nitro-3-(tetrahydro-2H-pyran-4-yl)-3,4-dihydro-2H-benzo[b][1,4]oxazin-7-yl)sulfonyl)-2-((5aS,9aR)-6,7,9,9a-tetrahydro-1H-pyrano[3,4-b]pyrrolo[3′,2′:5,6]pyrido[3,2-e][1,4]oxazin-5(5aH)-yl)benzamide] | – | 328
7 | Cc1ccccc1[C@@H]1CN([C@@H]2CCOc3c(F)cc(F)cc32)CCN1C1CC2(CCN(c3ccc(C(=O)NS(=O)(=O)c4cc5c(c([N+](=O)[O-])c4)N[C@H](C4CCOCC4)CO5)c(N4c5cc6cc[nH]c6nc5O[C@H]5COCC[C@@H]54)c3)CC2)C1 [Example 198, 4-(2-((R)-4-((R)-6,8-difluorochroman-4-yl)-2-(o-tolyl)piperazin-1-yl)-7-azaspiro[3.5]nonan-7-yl)-N-(((R)-5-nitro-3-(tetrahydro-2H-pyran-4-yl)-3,4-dihydro-2H-benzo[b][1,4]oxazin-7-yl)sulfonyl)-2-((5aS,9aR)-6,7,9,9a-tetrahydro-1H-pyrano[3,4-b]pyrrolo[3′,2′:5,6]pyrido[3,2-e][1,4]oxazin-5(5aH)-yl)benzamide] | – | 145
8 | Cc1ccccc1[C@@H]1CN(C2CCC(C)(O)CC2)CCN1C1CC2(CCN(c3ccc(C(=O)NS(=O)(=O)c4cc5c(c([N+](=O)[O-])c4)N[C@H](C4CCOCC4)CO5)c(N4c5cc6cc[nH]c6nc5O[C@H]5COCC[C@@H]54)c3)CC2)C1 (stereo partly drawn) [Example 199, 4-(2-((R)-4-((1r,4R)-4-hydroxy-4-methylcyclohexyl)-2-(o-tolyl)piperazin-1-yl)-7-azaspiro[3.5]nonan-7-yl)-N-(((R)-5-nitro-3-(tetrahydro-2H-pyran-4-yl)-3,4-dihydro-2H-benzo[b][1,4]oxazin-7-yl)sulfonyl)-2-((5aS,9aR)-6,7,9,9a-tetrahydro-1H-pyrano[3,4-b]pyrrolo[3′,2′:5,6]pyrido[3,2-e][1,4]oxazin-5(5aH)-yl)benzamide] | 50.4 | –
9 | Cc1ccccc1[C@@H]1CN(C2CCC(C)(O)CC2)CCN1C1CC2(CCN(c3ccc(C(=O)NS(=O)(=O)c4cc5c(c([N+](=O)[O-])c4)N[C@H](C4CCOCC4)CO5)c(N4c5cc6cc[nH]c6nc5O[C@H]5COCC[C@@H]54)c3)CC2)C1 (stereo partly drawn) [Example 200, 4-(2-((R)-4-((1s,4S)-4-hydroxy-4-methylcyclohexyl)-2-(o-tolyl)piperazin-1-yl)-7-azaspiro[3.5]nonan-7-yl)-N-(((R)-5-nitro-3-(tetrahydro-2H-pyran-4-yl)-3,4-dihydro-2H-benzo[b][1,4]oxazin-7-yl)sulfonyl)-2-((5aS,9aR)-6,7,9,9a-tetrahydro-1H-pyrano[3,4-b]pyrrolo[3′,2′:5,6]pyrido[3,2-e][1,4]oxazin-5(5aH)-yl)benzamide] | 82.6 | –
10 | Cc1ccccc1[C@@H]1CN(C2CCN(C3CCOCC3)CC2)CCN1C1CC2(CCN(c3ccc(C(=O)NS(=O)(=O)c4cc5c(c([N+](=O)[O-])c4)N[C@H](C4CCOCC4)CO5)c(N4c5cc6cc[nH]c6nc5O[C@H]5COCC[C@@H]54)c3)CC2)C1 [Example 201, 2-[(3R,8S)-2,5-dioxa-9,15,17-triazatetracyclo[8.7.0.0^{3,8}.0^{12,16}]heptadeca-1(10),11,13,16-tetraen-9-yl]-4-{2-[(2R)-2-(2-methylphenyl)-4-[1-(oxan-4-yl)piperidin-4-yl]piperazin-1-yl]-7-azaspiro[3.5]nonan-7-yl}-N-[(3R)-5-nitro-3-(oxan-4-yl)-3,4-dihydro-2H-1,4-benzoxazin-7-ylsulfonyl]benzamide] | 232 | –
11 | Cc1ccccc1[C@@H]1CN(C2CCC3(CCOCC3)CC2)CCN1C1CC2(CCN(c3ccc(C(=O)NS(=O)(=O)c4cc5c(c([N+](=O)[O-])c4)N[C@H](C4CCOCC4)CO5)c(N4c5cc6cc[nH]c6nc5O[C@H]5COCC[C@@H]54)c3)CC2)C1 (stereo partly drawn) [Example 202, 2-[(3R,8S)-2,5-dioxa-9,15,17-triazatetracyclo[8.7.0.0^{3,8}.0^{12,16}]heptadeca-1(10),11,13,16-tetraen-9-yl]-4-{2-[(2R)-2-(2-methylphenyl)-4-{3-oxaspiro[5.5]undecan-9-yl}piperazin-1-yl]-7-azaspiro[3.5]nonan-7-yl}-N-[(3R)-5-nitro-3-(oxan-4-yl)-3,4-dihydro-2H-1,4-benzoxazin-7-ylsulfonyl]benzamide] | 15.1 | –
12 | Cc1ccccc1[C@@H]1CN(C2CCC(N3CCOC[C@@H]3C)CC2)CCN1C1CC2(CCN(c3ccc(C(=O)NS(=O)(=O)c4cc5c(c([N+](=O)[O-])c4)N[C@H](C4CCOCC4)CO5)c(N4c5cc6cc[nH]c6nc5O[C@H]5COCC[C@@H]54)c3)CC2)C1 (stereo partly drawn) [Example 203, 4-(2-((R)-4-((1S,4R)-4-((S)-3-methylmorpholino)cyclohexyl)-2-(o-tolyl)piperazin-1-yl)-7-azaspiro[3.5]nonan-7-yl)-N-(((R)-5-nitro-3-(tetrahydro-2H-pyran-4-yl)-3,4-dihydro-2H-benzo[b][1,4]oxazin-7-yl)sulfonyl)-2-((5aS,9aR)-6,7,9,9a-tetrahydro-1H-pyrano[3,4-b]pyrrolo[3′,2′:5,6]pyrido[3,2-e][1,4]oxazin-5(5aH)-yl)benzamide] | 68.6 | –
